Assay results reported in patent US9096591B2, “Tetracyclic compounds” (Medivation Technologies, Inc., priority 2007, dated 2015).

Experiments:
[1] = target: T1, human recombinant serotonin (5-Hydroxytryptamine) 5-HT6 receptor (Homo sapiens, UniProt P50406); assay: Serotonin 5-HT6 radioligand binding ([3H]LSD); parameters: Inhibition of ligand binding, Ser. 5-HT6: concentration or dose not given beside the values; details: percent inhibition of specific binding
T1 construct: expressed in transfected cells; host or cells: human HeLa cells
T1 sequence (P50406 whole entry): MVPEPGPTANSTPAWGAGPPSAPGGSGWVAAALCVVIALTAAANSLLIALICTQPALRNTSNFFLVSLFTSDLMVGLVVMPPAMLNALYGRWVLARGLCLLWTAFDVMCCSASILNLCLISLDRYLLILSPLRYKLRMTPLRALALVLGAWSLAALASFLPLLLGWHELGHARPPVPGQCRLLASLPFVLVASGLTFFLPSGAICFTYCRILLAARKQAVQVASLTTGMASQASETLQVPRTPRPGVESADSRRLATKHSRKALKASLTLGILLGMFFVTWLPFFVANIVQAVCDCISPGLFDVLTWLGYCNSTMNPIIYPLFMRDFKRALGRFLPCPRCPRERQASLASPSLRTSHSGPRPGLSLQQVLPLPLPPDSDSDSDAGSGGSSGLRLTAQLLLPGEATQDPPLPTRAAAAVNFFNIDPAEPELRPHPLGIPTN
Source text: Receptor proteins were filtered and washed, the filters were then counted to determine [3H]LSD specifically bound. […] Biochemical assay results are presented as the percent inhibition of specific binding in Table 6.

[2] = target: T2, Serotonin (5-Hydroxytryptamine) 5-HT7 (Homo sapiens, UniProt P34969); assay: Serotonin 5-HT7 radioligand binding ([3H]LSD); parameters: Inhibition of ligand binding, Ser. 5-HT7: concentration or dose not given beside the values; details: percent inhibition of specific binding
T2 construct: expressed in transfected cells; host or cells: CHO cells
T2 sequence (P34969 whole entry): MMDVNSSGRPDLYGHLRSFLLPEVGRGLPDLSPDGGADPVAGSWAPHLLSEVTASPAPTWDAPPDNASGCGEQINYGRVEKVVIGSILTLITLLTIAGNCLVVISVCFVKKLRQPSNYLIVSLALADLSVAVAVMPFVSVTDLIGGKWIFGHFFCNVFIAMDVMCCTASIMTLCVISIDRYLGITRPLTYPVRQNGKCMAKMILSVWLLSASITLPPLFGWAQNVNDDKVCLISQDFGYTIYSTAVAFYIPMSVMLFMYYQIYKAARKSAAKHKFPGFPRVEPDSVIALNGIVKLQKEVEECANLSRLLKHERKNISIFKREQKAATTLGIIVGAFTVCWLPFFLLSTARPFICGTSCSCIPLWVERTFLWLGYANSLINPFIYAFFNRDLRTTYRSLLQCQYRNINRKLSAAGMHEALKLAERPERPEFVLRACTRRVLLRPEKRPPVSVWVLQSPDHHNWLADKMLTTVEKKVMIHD
Protocol: Lysergic acid diethylamide (LSD) for 2 hours at 25° C. […] Receptor proteins were filtered and washed, the filters were then counted to determine [^3H]LSD specifically bound. […] Biochemical assay results are presented as the percent inhibition of specific binding in Table 6.

[3] = system: adrenergic receptors α1D, α2A, α2B; serotonin receptor 5-HT6; dopamine receptor D2L; assay: Classification of compounds (Type 1-4) from receptor binding and neurite outgrowth
[4] = target: T3, human recombinant adrenergic α2A receptor (Homo sapiens, UniProt P08913); assay: Adrenergic α2A radioligand binding ([3H]MK-912); parameters: Inhibition of ligand binding, Adren. alpha2A: concentration or dose not given beside the values; details: percent inhibition of specific binding
T3 construct: expressed in transfected cells; host or cells: insect Sf9 cells
T3 sequence (P08913 1-465): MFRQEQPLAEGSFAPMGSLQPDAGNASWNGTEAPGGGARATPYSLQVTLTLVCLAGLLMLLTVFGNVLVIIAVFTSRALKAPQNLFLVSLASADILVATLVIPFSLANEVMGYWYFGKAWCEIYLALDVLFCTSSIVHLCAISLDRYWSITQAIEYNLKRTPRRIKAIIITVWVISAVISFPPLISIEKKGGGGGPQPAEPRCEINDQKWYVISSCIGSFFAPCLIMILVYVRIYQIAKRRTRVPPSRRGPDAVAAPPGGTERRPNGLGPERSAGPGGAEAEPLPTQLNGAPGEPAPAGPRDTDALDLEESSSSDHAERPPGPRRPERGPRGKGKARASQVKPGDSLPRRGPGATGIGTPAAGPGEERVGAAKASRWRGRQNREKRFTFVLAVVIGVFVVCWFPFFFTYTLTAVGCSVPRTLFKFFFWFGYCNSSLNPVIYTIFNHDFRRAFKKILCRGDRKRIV
Outline: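 Membranes from Sf9 cells expressing the receptor were incubated with 1 nM [3H]MK-912 for 60 minutes at 25° C in 50 mM Tris-HCl pH 7.4, 12.5 mM MgCl2, 2 mM EDTA. 10 μM WB-4101 defined non-specific binding. Values are percent inhibition of specific bound radioactivity after filtration.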

[5] = target: T4, human recombinant histamine H1 receptor (Homo sapiens, UniProt P35367); assay: Histamine H1 radioligand binding ([3H]Pyrilamine); details: percent inhibition of specific binding; screened at 1 μM; read-out: Inhibition of ligand binding, Hist. H1
T4 construct: expressed in transfected cells; host or cells: CHO cells
T4 sequence (P35367 whole entry): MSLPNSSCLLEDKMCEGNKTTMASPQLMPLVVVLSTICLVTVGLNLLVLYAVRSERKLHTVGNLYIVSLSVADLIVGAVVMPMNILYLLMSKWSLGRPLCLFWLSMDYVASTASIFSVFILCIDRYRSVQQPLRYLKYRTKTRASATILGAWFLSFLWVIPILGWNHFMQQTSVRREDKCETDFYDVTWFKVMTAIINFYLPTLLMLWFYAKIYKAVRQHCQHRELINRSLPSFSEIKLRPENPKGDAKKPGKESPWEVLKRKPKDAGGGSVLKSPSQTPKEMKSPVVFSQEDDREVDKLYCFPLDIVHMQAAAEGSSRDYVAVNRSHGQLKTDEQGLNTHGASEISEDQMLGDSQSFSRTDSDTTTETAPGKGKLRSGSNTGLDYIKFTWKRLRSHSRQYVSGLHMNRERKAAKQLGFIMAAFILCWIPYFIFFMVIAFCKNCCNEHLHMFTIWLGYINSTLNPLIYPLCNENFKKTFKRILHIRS
Outline: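 Receptor expressed in CHO cells, assayed in 50 mM Tris-HCl pH 7.4 with 2 mM MgCl2, 100 mM NaCl, 250 mM sucrose. Compounds tested at 1 μM in 1% DMSO; non-specific binding set with 1 μM pyrilamine. Filter-bound radioactivity counted; values are percent inhibition of specific binding.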

[6] = target: T5, human recombinant dopamine D2L receptor (Homo sapiens, UniProt P14416); assay: Dopamine D2L radioligand binding ([3H]Spiperone); details: percent inhibition of specific binding
T5 construct: expressed in transfected cells; host or cells: CHO cells
T5 sequence (P14416 whole entry): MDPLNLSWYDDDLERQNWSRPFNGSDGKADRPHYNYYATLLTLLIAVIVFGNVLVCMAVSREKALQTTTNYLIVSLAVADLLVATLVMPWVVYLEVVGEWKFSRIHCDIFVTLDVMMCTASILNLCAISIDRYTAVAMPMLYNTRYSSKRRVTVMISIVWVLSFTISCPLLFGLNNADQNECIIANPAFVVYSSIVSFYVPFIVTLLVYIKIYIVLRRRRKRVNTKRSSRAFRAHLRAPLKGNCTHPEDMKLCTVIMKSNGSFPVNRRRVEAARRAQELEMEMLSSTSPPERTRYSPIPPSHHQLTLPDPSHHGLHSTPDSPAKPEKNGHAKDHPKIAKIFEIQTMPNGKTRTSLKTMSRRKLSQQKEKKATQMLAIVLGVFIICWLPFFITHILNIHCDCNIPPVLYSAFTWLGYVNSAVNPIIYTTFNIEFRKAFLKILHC
Protocol: Non-specific binding was estimated in the presence of 10 μM Haloperidol. Receptor proteins were filtered and washed, the filters were then counted to determine [^3H]Spiperone specifically bound. […] Biochemical assay results are presented as the percent inhibition of specific binding in Table 6.

**Q.** For CC(C)c1ccc(CCn2c3c(c4cc(Cl)ccc42)CN(C)CC3)cn1 [Compound 372, 8-Chloro-5-[2-(6-isopropyl-pyridin-3-yl)-ethyl]-2-methyl-2,3,4,5-tetrahydro-1H-pyrido[4,3-b]indole], which “Inhibition of ligand binding, Ser. 5-HT6” value [1] is on record?
**A.** 88%

**Q.** And the “Inhibition of ligand binding, Ser. 5-HT7” value [2]?
**A.** 94%

**Q.** What about the “compound type (classification by receptor binding profile and neurite outgrowth)” value [3] of the same molecule?
**A.** Type one

**Q.** And the “Inhibition of ligand binding, Adren. alpha2A” value [4]?
**A.** 100%

**Q.** And the inhibition at 1 µM [5]?
**A.** 101%

**Q.** And the “Inhibition of ligand binding, Dop. D2L” value [6]?
**A.** 44%
